According to patent publication US7368578B2, “Five-membered heterocyclic compounds” (Takeda Pharmaceutical Company Limited, priority 2002, dated 2008):

First: Cc1oc(-c2ccco2)nc1COc1ccc(COc2nn(Cc3ccccc3)cc2C=O)cc1-c1ccccc1 [Example 59, 1-benzyl-3-[(4-{[2-(2-furyl)-5-methyl-1,3-oxazol-4-yl]methoxy}-3-phenylbenzyl)oxy]-1H-pyrazole-4-carbaldehyde]
Second: Cc1cc(COc2nn(Cc3ccccc3)cc2C=O)ccc1OCc1nc(-c2ccco2)oc1C [Example 63, 1-benzyl-3-[(4-{[2-(2-furyl)-5-methyl-1,3-oxazol-4-yl]methoxy}-3-methylbenzyl)oxy]-1H-pyrazole-4-carbaldehyde]
The melting point of the first is higher: 122 to 123 °C for the first, 121 to 122 °C for the second.

First: CCOC(=O)c1cn(Cc2ccccc2)nc1OCc1ccc(OCc2nc(-c3ccco3)oc2C)c(C)c1 [Example 60, ethyl 1-benzyl-3-[(4-{[2-(2-furyl)-5-methyl-1,3-oxazol-4-yl]methoxy}-3-methylbenzyl)oxy]-1H-pyrazole-4-carboxylate]
Second: CCOC(=O)c1cn(Cc2ccccc2)nc1OCc1ccc(OCc2nc(-c3ccco3)oc2C)c(CC)c1 [Example 68, ethyl 1-benzyl-3-[(3-ethyl-4-{[2-(2-furyl)-5-methyl-1,3-oxazol-4-yl]methoxy}benzyl)oxy]-1H-pyrazole-4-carboxylate]
The melting point of the first is lower: 120 to 121 °C for the first, 125 to 126 °C for the second.

First: Cc1cc(COc2nn(Cc3ccccc3)cc2C(=O)O)ccc1OCc1nc(-c2ccco2)oc1C [Example 61, 1-benzyl-3-[(4-{[2-(2-furyl)-5-methyl-1,3-oxazol-4-yl]methoxy}-3-methylbenzyl)oxy]-1H-pyrazole-4-carboxylic acid]
Second: CCc1cc(COc2nn(Cc3ccccc3)cc2C(=O)O)ccc1OCc1nc(-c2ccco2)oc1C [Example 69, 1-benzyl-3-[(3-ethyl-4-{[2-(2-furyl)-5-methyl-1,3-oxazol-4-yl]methoxy}benzyl)oxy]-1H-pyrazole-4-carboxylic acid]
The melting point of the first is higher: 176 to 177 °C for the first, 173 to 174 °C for the second.

First: CCOC(=O)c1cn(-c2ccccc2)nc1OCc1oc2cc(OCc3nc(-c4ccccc4)oc3C)ccc2c1-c1ccccc1 [Example 64, ethyl 3-({6-[(5-methyl-2-phenyl-1,3-oxazol-4-yl)methoxy]-3-phenyl-1-benzofuran-2-yl}methoxy)-1-phenyl-1H-pyrazole-4-carboxylate]
Second: Cc1oc(-c2ccccc2)nc1COc1ccc2c(-c3ccccc3)c(COc3nn(-c4ccccc4)cc3C(=O)O)oc2c1 [Example 65, 3-({6-[(5-methyl-2-phenyl-1,3-oxazol-4-yl)methoxy]-3-phenyl-1-benzofuran-2-yl}methoxy)-1-phenyl-1H-pyrazole-4-carboxylic acid]
The melting point of the first is lower: 143 to 144 °C for the first, 200 to 201 °C for the second.

Compared with Cc1oc(-c2ccccc2)nc1COc1ccc2c(-c3ccccc3)c(COc3nn(-c4ccccc4)cc3CO)oc2c1 [Example 66, [3-({6-[(5-methyl-2-phenyl-1,3-oxazol-4-yl)methoxy]-3-phenyl-1-benzofuran-2-yl}methoxy)-1-phenyl-1H-pyrazol-4-yl]methanol], Cc1oc(-c2ccccc2)nc1COc1ccc2c(-c3ccccc3)c(COc3nn(-c4ccccc4)cc3C=O)oc2c1 [Example 67, 3-({6-[(5-methyl-2-phenyl-1,3-oxazol-4-yl)methoxy]-3-phenyl-1-benzofuran-2-yl}methoxy)-1-phenyl-1H-pyrazole-4-carbaldehyde] is higher in melting point: 118 to 119 °C for the first, 176 to 177 °C for the second.

First: CCc1cc(COc2nn(Cc3ccccc3)cc2C=O)ccc1OCc1nc(-c2ccco2)oc1C [Example 71, 1-benzyl-3-[(3-ethyl-4-{[2-(2-furyl)-5-methyl-1,3-oxazol-4-yl]methoxy}benzyl)oxy]-1H-pyrazole-4-carbaldehyde]
Second: Cc1oc(-c2ccco2)nc1COc1ccc(COc2nn(-c3ccccc3)cc2C=O)cc1 [Example 85, 3-[(4-{[2-(2-furyl)-5-methyl-1,3-oxazol-4-yl]methoxy}benzyl)oxy]-1-phenyl-1H-pyrazole-4-carbaldehyde]
The melting point of the first is lower: 128 to 129 °C for the first, 148 to 149 °C for the second.

Compared with COc1cc(COc2nn(-c3ccccc3)cc2C(=O)O)ccc1OCc1nc(-c2ccco2)oc1C [Example 73, 3-[(4-{[2-(2-furyl)-5-methyl-1,3-oxazol-4-yl]methoxy}-3-methoxybenzyl)oxy]-1-phenyl-1H-pyrazole-4-carboxylic acid], COc1cc(COc2nn(-c3ccccc3)cc2C(N)=O)ccc1OCc1nc(-c2ccco2)oc1C [Example 74, 3-[(4-{[2-(2-furyl)-5-methyl-1,3-oxazol-4-yl]methoxy}-3-methoxybenzyl)oxy]-1-phenyl-1H-pyrazole-4-carboxamide] is lower in melting point: 184 to 185 °C for the first, 175 to 176 °C for the second.

Compared with CCOC(=O)/C=C/c1cn(-c2ccccc2)nc1OCc1ccc(OCc2nc(-c3ccco3)oc2C)c(OC)c1 [Example 78, ethyl (2E)-3-{3-[(4-{[2-(2-furyl)-5-methyl-1,3-oxazol-4-yl]methoxy}-3-methoxybenzyl)oxy]-1-phenyl-1H-pyrazol-4-yl}-2-propenoate], COc1cc(COc2nn(-c3ccccc3)cc2/C=C/C(N)=O)ccc1OCc1nc(-c2ccco2)oc1C [Example 94, (2E)-3-{3-[(4-{[2-(2-furyl)-5-methyl-4-oxazolyl]methoxy}-3-methoxybenzyl)oxy]-1-phenyl-1H-pyrazol-4-yl}-2-propenamide] is higher in melting point: 177 to 178 °C for the first, 187 to 188 °C for the second.

First: COc1cc(COc2nn(-c3ccccc3)cc2/C=C/C(=O)O)ccc1OCc1nc(-c2ccco2)oc1C [Example 79, (2E)-3-{3-[(4-{[2-(2-furyl)-5-methyl-1,3-oxazol-4-yl]methoxy}-3-methoxybenzyl)oxy]-1-phenyl-1H-pyrazol-4-yl}-2-propenoic acid]
Second: COc1cc(COc2nn(-c3ccccc3)cc2/C=C/C#N)ccc1OCc1nc(-c2ccco2)oc1C [Example 95, (2E)-3-{3-[(4-{[2-(2-furyl)-5-methyl-1,3-oxazol-4-yl]methoxy}-3-methoxybenzyl)oxy]-1-phenyl-1H-pyrazol-4-yl}-2-propenenitrile]
The melting point of the first is higher: 204 to 205 °C for the first, 177 to 178 °C for the second.

Compared with Cc1oc(-c2ccccc2)nc1COc1ccc(COc2nn(-c3ccccc3)cc2C=O)cc1 [Example 80, 3-({4-[(2-phenyl-5-methyl-1,3-oxazol-4-yl)methoxy]benzyl}oxy)-1-phenyl-1H-pyrazole-4-carbaldehyde], Cc1oc(-c2ccccc2)nc1COc1ccc(COc2nn(-c3ccccc3)cc2/C=C/C(=O)O)cc1 [Example 83, (2E)-3-[3-({4-[(2-phenyl-5-methyl-1,3-oxazol-4-yl)methoxy]benzyl}oxy)-1-phenyl-1H-pyrazol-4-yl]-2-propenoic acid] is higher in melting point: 152 to 153 °C for the first, 186 to 187 °C for the second.

Compared with Cc1oc(-c2ccccc2)nc1COc1ccc(COc2nn(-c3ccccc3)cc2CO)cc1 [Example 81, [3-({4-[(2-phenyl-5-methyl-1,3-oxazol-4-yl)methoxy]benzyl}oxy)-1-phenyl-1H-pyrazol-4-yl]methanol], CCOC(=O)/C=C/c1cn(-c2ccccc2)nc1OCc1ccc(OCc2nc(-c3ccccc3)oc2C)cc1 [Example 82, ethyl (2E)-3-[3-({4-[(2-phenyl-5-methyl-1,3-oxazol-4-yl)methoxy]benzyl}oxy)-1-phenyl-1H-pyrazol-4-yl]-2-propenoate] is higher in melting point: 118 to 119 °C for the first, 154 to 155 °C for the second.

First: CCOC(=O)/C=C/c1cn(-c2ccccc2)nc1OCc1ccc(OCc2nc(-c3ccco3)oc2C)cc1 [Example 87, ethyl (2E)-3-(3-[(4-{[2-(2-furyl)-5-methyl-1,3-oxazol-4-yl]methoxy}benzyl)oxy]-1-phenyl-1H-pyrazol-4-yl}-2-propenoate]
Second: Cc1oc(-c2ccco2)nc1COc1ccc(COc2nn(-c3ccccc3)cc2/C=C/C(=O)O)cc1 [Example 88, (2E)-3-{3-[(4-{[2-(2-furyl)-5-methyl-1,3-oxazol-4-yl]methoxy}benzyl)oxy]-1-phenyl-1H-pyrazol-4-yl}-2-propenoic acid]
The melting point of the first is lower: 142 to 143 °C for the first, 144 to 145 °C for the second.

First: Cc1oc(-c2ccco2)nc1COc1ccc(COc2nn(-c3ccccc3)cc2C#N)cc1 [Example 89, 3-[(4-{[2-(2-furyl)-5-methyl-1,3-oxazol-4-yl]methoxy}benzyl)oxy]-1-phenyl-1H-pyrazole-4-carbonitrile]
Second: COc1cc(COc2nn(-c3ccccc3)cc2C=C(C#N)C#N)ccc1OCc1nc(-c2ccco2)oc1C [Example 96, ({3-[(4-{[2-(2-furyl)-5-methyl-1,3-oxazol-4-yl]methoxy}-3-methoxybenzyl)oxy]-1-phenyl-1H-pyrazol-4-yl)methylene) malononitrile]
The melting point of the first is lower: 158 to 159 °C for the first, 190 to 191 °C for the second.

First: Cc1oc(-c2ccccc2)nc1COc1ccc(OCc2nc(-c3ccccc3)oc2CO)cc1 [Example 91, [4-({4-[(5-methyl-2-phenyl-1,3-oxazol-4-yl)methoxy]phenoxy}methyl)-2-phenyl-1,3-oxazol-5-yl]methanol]
Second: Cc1oc(-c2ccccc2)nc1COc1ccc(OCc2oc(-c3ccccc3)nc2CO)cc1 [Example 93, [5-({4-[(5-methyl-2-phenyl-1,3-oxazol-4-yl)methoxy]phenoxy}methyl)-2-phenyl-1,3-oxazol-4-yl]methanol]
The melting point of the first is higher: 157 to 158 °C for the first, 143 to 144 °C for the second.

Compared with COCOCc1nc(-c2ccccc2)oc1COc1ccc(OCc2nc(-c3ccccc3)oc2C)cc1 [Example 92, 4-[(methoxymethoxy)methyl]-5-({4-[(5-methyl-2-phenyl-1,3-oxazol-4-yl)methoxy]phenoxy}methyl)-2-phenyl-1,3-oxazole], COc1cc(COc2nn(-c3ccccc3)cc2/C=C/C2=NCCO2)ccc1OCc1nc(-c2ccco2)oc1C [Example 99, 4-({4-[({4-[(E)-2-(4,5-dihydro-1,3-oxazol-2-yl)ethenyl]-1-phenyl-1H-pyrazol-3-yl}oxy)methyl]-2-methoxyphenoxy}methyl)-2-(2-furyl)-5-methyl-1,3-oxazole] is higher in melting point: 74 to 75 °C for the first, 162 to 163 °C for the second.

COc1cc(COc2nn(-c3ccccc3)cc2/C=C/C(=O)N2CCOCC2)ccc1OCc1nc(-c2ccco2)oc1C [Example 98, 4-((2E)-3-{3-[(4-{[2-(2-furyl)-5-methyl-1,3-oxazol-4-yl]methoxy}-3-methoxybenzyl)oxy]-1-phenyl-1H-pyrazol-4-yl}-2-propenoyl)morpholine] showed a melting point of 180 to 181 °C.
